Measurements taken from patent US5710145A, “Protein kinase C inhibitor” (priority 1996, dated 1998).
Structures can show the parent of a compound that is named as a salt.

How the values were obtained:
[1] = Thermogravimetric analysis (TGA) of salts; format: physicochemical; conditions: for TGA weight loss 20-100° C.: heated 20-100° C.; for TGA weight loss 100-200° C.: heated 100-200° C.
Method: Each salt was analyzed by TGA, DSC and Mettler hot stage microscopy and compared (Table III). […] The samples were also examined by hot stage microscopy using a Mettler hot stage.

physchem = format: physicochemical; conditions: for pH (saturated aq Solution): saturated aqueous solution
Method: The aqueous solubility of each salt was determined by UV analysis (Table II) and compared. […] The high pH observed with the succinate and acetate salt indicated the presence of untitrated free base.

[2] = Karl-Fisher (coulometric) water content of salts; format: physicochemical
Method: (§1) The salts were examined for hygroscopicity at relative humidities (RH) of 27%, 35%, 65% and 80% and are depicted in Table IV. The samples were subjected to vacuum initially to establish a reference point for the RH data. The amount of water contained in each salt was also determined by Karl-Fisher (coulometric).

[3] = Hygroscopicity of salts at relative humidities; format: physicochemical; conditions: for Hygroscopicity, RH 27%: 27% RH; for Hygroscopicity, RH 35%: 35% RH; for Hygroscopicity, RH 65%: 65% RH; for Hygroscopicity, RH 80%: 80% RH
Method: as §1

Protein Kinase C = assay: Protein kinase C inhibitor activity / selectivity (Calcium Calmodulin Dependent Protein Kinase, Casein Protein Kinase II, cAMP-Dependent Protein Kinase Catalytic Subunit and Protein-Tyrosine Kinase assays); format: biochemical
Method: As previously stated, the compound of the present invention are active as selective Protein Kinase C inhibitors. The activity of compound is disclosed in Heath et al., EP 0 657 458, published on Jun. 14, 1995. The activity was determined in the Calcium Calmodulin Dependent Protein Kinase Assay, Casein Protein Kinase II assay, cAMP-Dependent Protein Kinase Catalytic Subunit assay and the Protein-Tyrosine Kinase assay. […] Conditions recognized in the art include: diabetes mellitus and its complications (including retinopathy, neuropathy and nephropathy), ischemia, inflammation, central nervous system disorders, cardiovascular disease, Alzheimer's disease, dermatological disease and cancer.

[4] = Oral bioavailability of HCl and mesylate salts in dogs, single 20 mg/kg dose, cross-over; format: in vivo, Male Beagle Dogs
Method: Because the hydrochloride salt is the most common pharmaceutical salt and is specifically disclosed in Heath et al., EP 0 657 458, published on Jun. 14, 1995 (Example 5), a biological comparison of the mesylate and HCl salt was carried out. […] The bioavailability of the salt forms was measured in four Male Beagle Dogs by orally administering a single 20 mg/kg dose of the HCl and the claimed mesylate salt in a 10% acacia suspension. One week washout period was allowed between doses. Doses were administered in a cross-over design (2 dogs/salt/study dog). The plasma concentration of the active compound as well as an active metabolite was monitored. […] This represents an approximately 260% increase in plasma concentration of the compound and the metabolite.
The plasma concentration of the compound as well as the metabolite was also plotted as a function of time during the study. The ratio of the area under the concentration curve (AUC) represents a measure of bioavailability of the compound to the patient. The AUC ratio for the HCl salt and the claimed mesylate was calculated and is depicted in Table VI.

SMILES | TGA weight loss 20-100° C. [1] | TGA weight loss 100-200° C. [1] | pH (saturated aq Solution) (physchem) | Aqueous solubility (base) (physchem; water) | Aqueous solubility (salt) (physchem; water) | K. F. (Karl-Fisher water) [2] | Hygroscopicity, RH 27% [3] | Hygroscopicity, RH 35% [3] | Hygroscopicity, RH 65% [3] | Hygroscopicity, RH 80% [3] | Hygroscopicity, Vacuum [3] | also measured
CN(C)C[C@@H]1CCn2cc(c3ccccc32)C2=C(C(=O)NC2=O)c2cn(c3ccccc23)CCO1 [Succinate] | 0.73 % wt loss | 1.90 % wt loss | 7.72 | 0.4 μg base/mL H2 O | 0.5 μg salt/mL H2 O | 0.2% | 98.5 wt % initial | 99.1 wt % initial | 100.0 wt % initial | 100.5 wt % initial | 99.3 wt % initial | –
CN(C)C[C@@H]1CCn2cc(c3ccccc32)C2=C(C(=O)NC2=O)c2cn(c3ccccc23)CCO1 [HCl] | 1.42 % wt loss | 0.9 % wt loss | 4.98 | 249 μg base/mL H2 O | – | 1.3% | 98.2 wt % initial | 99.3 wt % initial | 100.4 wt % initial | 100.6 wt % initial | 98.7 wt % initial | aqueous solubility (physchem; water): 268 µg/mL
CN(C)C[C@@H]1CCn2cc(c3ccccc32)C2=C(C(=O)NC2=O)c2cn(c3ccccc23)CCO1 [Acetate] | 0.77 % wt loss | 1.44 % wt loss | 7.80 | 0.9 μg base/mL H2 O | 1 μg salt/mL H2 O | 0.3% | 98.6 wt % initial | 99.2 wt % initial | 100.2 wt % initial | 100.6 wt % initial | 99.4 wt % initial | –
CN(C)C[C@@H]1CCn2cc(c3ccccc32)C2=C(C(=O)NC2=O)c2cn(c3ccccc23)CCO1 [Tartrate] | 5.50 % wt loss | – | 3.77 | 54 μg base/mL H2 O | 71 μg salt/mL H2 O | 5.1% | 98.2 wt % initial | 101.3 wt % initial | 103.8 wt % initial | 105.4 wt % initial | 97.9 wt % initial | TGA weight loss 20-100° C. ([1]; listed as tartrate): 5.50 % wt loss
CN(C)C[C@@H]1CCn2cc(c3ccccc32)C2=C(C(=O)NC2=O)c2cn(c3ccccc23)CCO1 [Phosphate] | 5.50 % wt loss | – | 3.78 | 609 μg base/mL H2 O | 736 μg salt/mL H2 O | 4.6% | 98.6 wt % initial | 102.6 wt % initial | 105.5 wt % initial | 106.6 wt % initial | 98.2 wt % initial | TGA weight loss 20-100° C. ([1]; listed as phosphate): 5.50 % wt loss; hygroscopicity ranking ([3]; vacuum to 80% RH): most hygroscopic
CN(C)C[C@@H]1CCn2cc(c3ccccc32)C2=C(C(=O)NC2=O)c2cn(c3ccccc23)CCO1 [Sulfate] | 5.50 % wt loss | – | 2.57 | 12 μg base/mL H2 O | 14 μg salt/mL H2 O | 4.9% | 98.4 wt % initial | 99.8 wt % initial | 100.9 wt % initial | 101.9 wt % initial | 98.9 wt % initial | TGA weight loss 20-100° C. ([1]; listed as sulfate): 5.50 % wt loss
CN(C)C[C@@H]1CCn2cc(c3ccccc32)C2=C(C(=O)NC2=O)c2cn(c3ccccc23)CCO1 [Mesylate, (S)-13-[(dimethylamino)methyl]-10,11,14,15-tetrahydro-4,9:16,21-dimetheno-1H, 13H-dibenzo[E,K]pyrrolo[3,4-H][1,4,13]oxadiazacyclohexadecine-1,3(2H)-dione] | 3.97 % wt loss | – | 4.69 | 1460 μg base/mL H2 O | – | 3.6% | 98.5 wt % initial | 99.4 wt % initial | 100.7 wt % initial | 104.4 wt % initial | 99.0 wt % initial | effect of chloride on aqueous solubility (physchem): drops markedly with the addition of chloride; effect of pH on aqueous solubility (physchem): drops markedly at either higher or lower pH; pH of optimal aqueous solubility (physchem): 4.0 to 5.0 pH; aqueous solubility (physchem; water): 1760 µg/mL; solubility (physchem; water, pH 4.5, water, aqueous solubility at most preferred pH): 2250 µg/mL; IC50 (Protein Kinase C): < 10 µM; activity and isozyme selectivity (Protein Kinase C): active and isozyme selective; increase in plasma concentration of the compound and the metabolite ([4]; dog, in vivo, po, 20 mg/kg): approximately 260%; plasma concentrations of compound and metabolite vs HCl salt ([4]; each dog, equivalent oral dose): Higher plasma concentrations
